Laboratory results reported in US20050043341A1, “3-'Hydroxy-(-4-trifluoromethylphenyl)-methyl-7-spirocyclobutyl-5,6,7 8-tetrahydroquinolin-5-ol derivatives and the use of the same as cholesterol ester transfer protein (cetp) inhibitors” (priority 2001, published 2005).
Where two headings read alike, the source gives them in different places.

Columns and labels:
[1] = target: T1, CETP (Homo sapiens, UniProt P11597); assay: CETP fluorescence test; assay type: biochemical; settings: CETP from human plasma, 37° C., 4 hours; read-out: IC50 (nM) Fluor. test
T1 construct: CETP is obtained in partially purified form from human plasma; from tissue; host or cells: human plasma
T1 sequence (P11597 18-493): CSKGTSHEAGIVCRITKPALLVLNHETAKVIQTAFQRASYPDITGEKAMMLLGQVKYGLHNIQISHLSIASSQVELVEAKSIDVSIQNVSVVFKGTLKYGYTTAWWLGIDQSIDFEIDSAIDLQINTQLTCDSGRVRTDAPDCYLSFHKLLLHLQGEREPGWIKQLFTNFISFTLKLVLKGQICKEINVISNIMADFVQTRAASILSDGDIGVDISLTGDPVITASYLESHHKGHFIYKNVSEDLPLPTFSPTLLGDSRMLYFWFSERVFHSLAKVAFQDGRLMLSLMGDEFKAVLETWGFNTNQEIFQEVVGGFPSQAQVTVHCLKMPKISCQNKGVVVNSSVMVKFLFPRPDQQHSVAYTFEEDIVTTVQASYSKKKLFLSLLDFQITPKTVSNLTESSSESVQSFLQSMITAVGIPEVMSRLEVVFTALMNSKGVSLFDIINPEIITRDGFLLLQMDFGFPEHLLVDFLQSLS
Procedure: (§1) CETP is obtained in partially purified form from human plasma by differential centrifugation and column chromatography and used for the test. To this end, human plasma is adjusted to a density of 1.21 g per ml using NaBr and centrifuged at 4° C. at 50000 rpm for 18 h. The bottom fraction (d>1.21 g/ml) is applied to a Sephadex® Phenyl-Sepharose 4B (Pharmacia) column, washed with 0.15 M NaCl/0.001 M tris HCl pH 7.4 and then eluted with dist. water. Die CETP-active fractions are pooled, dialysed against 50 mM Na acetate pH 4.5 and applied to a CM-Sepharose® (Pharmacia) column. The mixture is then eluted using a linear gradient (0-1 M NaCl). The pooled CETP fractions are dialysed against 10 mM TrisHCl pH 7.4 and then further purified by chromatography on a Mono Q® column (Pharmacia).
Measurement of the CETP-catalysed transfer of a fluorescent cholesterol ester between liposomes—modified according to the procedure of Bisgaier et al., J. Lipid Res. 34, 1625 (1993).
For the production of the donor liposomes, 1 mg of cholesteryl 4,4-difluoro-5,7-dimethyl-4-bora-3a,4a-diaza-s-indacene-3-dodecanoate (cholesteryl BODIPY® FL C12, Molecular Probes) is dissolved in 600 μl of dioxane with 5.35 mg of triolein and 6.67 mg of phosphatidylcholine with gentle warming in an ultrasonic bath and this solution is added very slowly with ultrasonication to 63 ml of 50 mM tris/HCl, 150 mM NaCl, 2 mM EDTA buffer pH 7.3 at RT.
The suspension is then ultrasonicated under an N2 atmosphere for 30 minutes in the Braukson ultrasonic bath at about 50 watts, the temperature being kept at about 20° C.
The acceptor liposomes are obtained analogously from 86 mg of cholesteryl oleate, 20 mg of triolein and 100 mg of phosphatidylcholine dissolved in 1.2 ml of dioxane and 114 ml of above buffer by ultrasonication at 50 watts (20° C.) for 30 minutes.
For testing, a test mix consisting of 1 part of above buffer, 1 part of donor liposomes and 2 parts of acceptor liposomes is used.
80 μl of test mix are treated with 1-3 μg of enriched CETP fraction, obtained from human plasma by means of hydrophobic chromatography, and 2 μl of the substance to be investigated in DMSO and incubated at 37° C. for 4 hours.
The change in the fluorescence at 485/535 nm is a measure of the CE transfer; the inhibition of the transfer in comparison to the control batch without substance is determined.

[2] = target: T1, CETP; assay: CETP-SPA test; assay type: biochemical; settings: 3H-cholesterol ester transfer from HDL to biotin-LDL, 37° C., 18 h
Procedure: as §1
50 ml of fresh human EDTA plasma are adjusted to a density of 1.12 using NaBr and centrifuged at 4° C. in a Ty 65 rotor at 50000 rpm for 18 h. The upper phase is used for the obtainment of cold LDL. The lower phase is dialysed against 3×41 of PDB buffer (10 mM tris/HCl pH 7.4, […], 1 mM EDTA, 0.02% NaN3). Per 10 ml of retentate volume, 20 μl of 3H-cholesterol (Dupont NET-725; 1 μC/μl dissolved in ethanol!) is then added and the mixture is incubated at 37° C. under N2 for 72 h.
The batch is then adjusted to the density 1.21 using NaBr and centrifuged at 20° C. in a Ty 65 rotor at 50000 rpm for 18 h. The upper phase is recovered and the lipoprotein fractions are purified by gradient centrifugation. To this end, the isolated, labelled lipoprotein fraction is adjusted to a density of 1.26 using NaBr. 4 ml each of this solution are covered in centrifuged tubes (SW 40 rotor) with a layer of 4 ml of a solution of density 1.21 and 4.5 ml of a solution of 1.063 (density solutions of PDB buffer and NaBr) and then centrifuged for 24 h at 38000 rpm and 20° C. in the SW 40 rotor. The intermediate layer lying between the density 1.063 and 1.21, containing the labelled HDL, is dialysed against 3×100 volumes of PDB buffer at 4° C.
The retentate contains radiolabelled ^3H-CE-HDL, which, adjusted to about 5×10^6 cmp per ml, is used for the test.
For testing of the CETP activity, the transfer of ^3H-cholesterol ester from human HD lipoproteins to biotinylated LD lipoproteins is measured.
The reaction is ended by addition of streptavidin-SPA®beads (Amersham) and the transferred radioactivity is determined directly in a liquid scintillation counter.
In the test batch, 10 μl of HDL-^3H-cholesterol ester (˜50000 cpm) are incubated at 37° C. for 18 h with 10 μl of biotin-LDL (Amersham) in 50 mM Hepes/0.15 M NaCl/0.1% bovine serum albumin/0.05% NaN3 pH 7.4 containing 10 μl of CETP (1 mg/ml) and 3 μl of solution of the substance to be tested (dissolved in 10% DMSO/1% RSA). 200 μl of the SPA-streptavidin bead solution (TRKQ 7005) are then added, incubated further with shaking for 1 h and then measured in a scintillation counter.
Corresponding incubations with 10 μl of buffer, 10 μl of CETP at 4° C. and 10 μl of CETP at 37° C. serve as controls.
The activity transferred in the control batches with CETP at 37° C. is rated as 100% transfer. The substance concentration at which this transfer is reduced to half is specified as the IC50 value.

[3] = target: T2, CETP activity in the serum (Homo sapiens, UniProt P11597); assay: Ex vivo activities on transgenic hCETP mice (serum CETP activity after oral administration); settings: mouse, cholesteryl ester transport in serum
T2 construct: determination of its basal CETP activity in the serum; from tissue; host or cells: serum of transgenic hCETP mice
T2 sequence (P11597 18-493): T1 sequence (P11597 18-493)
Procedure: To test for CETP-inhibitory activity, the substances are administered orally using a stomach tube to transgenic hCETP mice of our own breeding (Dinchuk et al. BBA (1995) 1295-301). To this end, male mice are randomly assigned to groups having an equal number of animals, as a rule n=3, one day before the start of the experiment. Before administration of the substance, blood is taken from each mouse by puncture of the retroorbital venous plexus for the determination of its basal CETP activity in the serum (T1). The test substance is then administered to the animals using the stomach tube. At specific times after administration of the test substance, blood is taken from the animals by puncture a second time (T2), as a rule 1, or 3 and 6 h after substance administration, but if appropriate this can also be carried out at another time.
In order to be able to assess the inhibitory activity of a substance, for each time, i.e. 1 or 3 or 6 h, a corresponding control group is employed whose animals only receive the formulating agent without substance. In the control animals, the second blood sampling per animal is carried out as in the substance-treated animals in order to be able to determine the change in the CETP activity without inhibitor over the corresponding experimental time interval (1, 3 or 6 h).
After termination of the clotting, the blood samples are centrifuged and the serum is removed by pipette.
For the determination of the CETP activity, the cholesteryl ester transport over 4 h is determined. To this end, as a rule 2 μl of serum are employed in the test batch and the test is carried out as described under “CETP fluorescence test”.
The differences in the cholesteryl ester transport (pM CE*/h (T2)−pM CE*/h (T1)) are calculated for each animal and averaged in the groups. A substance which at one of the times reduces the cholesteryl ester transport by >30% is regarded as active.

[4] = 1 h after administration, read-out: % inhibition at 30 mg/kg, 1 h
[5] = 3 h after administration, read-out: % inhibition at 30 mg/kg, 3 h
[6] = 6 h after administration, read-out: % inhibition at 30 mg/kg, 6 h

In the case of O[C@@H](c1ccc(C(F)(F)F)cc1)c1c(C2CCCC2)nc2c(c1-c1ccccc1)[C@@H](O)CC1(CCC1)C2 [Example 55, (5S)-2-Cyclopentyl-4-phenyl-3-[(S)-hydroxy-(4-trifluoromethylphenyl)-methyl]-7-spirocyclobutyl-5,6,7,8-tetrahydroquinolin-5-ol], the IC50 [1] is reported as 65 nM.

In the case of CC(C)c1nc2c(c(-c3ccsc3)c1[C@@H](O)c1ccc(C(F)(F)F)cc1)[C@@H](O)CC1(CCC1)C2 [Example 57, (5S)-2-Isopropyl-4-(3-thienyl)-3-[(S)-hydroxy-(4-trifluoromethylphenyl)-methyl]-7-spirocyclobutyl-5,6,7,8-tetrahydroquinolin-5-ol], the IC50 [2] is reported as 40 nM and the IC50 [1] is reported as 45 nM.

O[C@@H](c1ccc(C(F)(F)F)cc1)c1c(C2CCCC2)nc2c(c1-c1ccsc1)[C@@H](O)CC1(CCC1)C2 [Example 59, (5S)-2-Cyclopentyl-4-(3-thienyl)-3-[(S)-hydroxy-(4-trifluoromethylphenyl)-methyl]-7-spirocyclobutyl-5,6,7,8-tetrahydroquinolin-5-ol] showed an IC50 [2] of 35 nM and an IC50 [1] of 60 nM.

O[C@@H](c1ccc(C(F)(F)F)cc1)c1c(C2CCCC2)nc2c(c1-c1cccs1)[C@@H](O)CC1(CCC1)C2 [Example 63, (5S)-2-Cyclopentyl-4-(2-thienyl)-3-[(S)-hydroxy-(4-trifluoromethylphenyl)-methyl]-7-spirocyclobutyl-5,6,7,8-tetrahydroquinolin-5-ol] showed an inhibition at 30 mg/kg [3, 4] of 74%, an inhibition at 30 mg/kg [3, 5] of 55% and an inhibition at 30 mg/kg [3, 6] of 40%. For the same compound, the IC50 [1] was 70 nM.

CC(C)c1nc2c(c(C3CCCCC3)c1[C@@H](O)c1ccc(C(F)(F)F)cc1)[C@@H](O)CC1(CCC1)C2 [Example 65, (5S)-2-Isopropyl-4-cyclohexyl-3-[(S)-hydroxy-(4-trifluoromethylphenyl)-methyl]-7-spirocyclobutyl-5,6,7,8-tetrahydroquinolin-5-ol] was tested, and the inhibition at 30 mg/kg [3, 4] was 69%, the inhibition at 30 mg/kg [3, 5] was 46% and the inhibition at 30 mg/kg [3, 6] was 28%. It also gave an IC50 [1] of 80 nM.

For O[C@@H](c1ccc(C(F)(F)F)cc1)c1c(C2CCCC2)nc2c(c1C1CCCCC1)[C@@H](O)CC1(CCC1)C2 [Example 67, (5S)-2-Cyclopentyl-4-cyclohexyl-3-[(S)-hydroxy-(4-trifluoromethylphenyl)-methyl]-7-spirocyclobutyl-5,6,7,8-tetrahydroquinolin-5-ol], the IC50 [2] was 15 nM and the IC50 [1] was 60 nM.

Work on O[C@@H](c1ccc(C(F)(F)F)cc1)c1c(C2CCCC2)nc2c(c1C1CCC1)[C@@H](O)CC1(CCC1)C2 [Example 73, (5S)-2-Cyclopentyl-4-cyclobutyl-3-[(S)-hydroxy-(4-trifluoromethylphenyl)-methyl]-7-spirocyclobutyl-5,6,7,8-tetrahydroquinolin-5-ol] yielded an IC50 [1] of 800 nM.

In the case of CC(C)c1c([C@@H](O)c2ccc(C(F)(F)F)cc2)c(C2CCCC2)nc2c1[C@@H](O)CC1(CCC1)C2 [Example 75, (5S)-2-Cyclopentyl-4-isopropyl-3-[(S)-hydroxy-(4-trifluoromethylphenyl)-methyl]-7-spirocyclobutyl-5,6,7,8-tetrahydroquinolin-5-ol], the IC50 [1] is reported as 70 nM.

Work on CCCc1c([C@@H](O)c2ccc(C(F)(F)F)cc2)c(C2CCCC2)nc2c1[C@@H](O)CC1(CCC1)C2 [Example 77, (5S)-2-Cyclopentyl-4-(1-propyl)-3-[(S)-hydroxy-(4-trifluoromethylphenyl)-methyl]-7-spirocyclobutyl-5,6,7,8-tetrahydroquinolin-5-ol] yielded an IC50 [1] of 2000 nM.
